{
  "source": "paper PMC11953117",
  "about": "(Cancer Chemotherapy and Pharmacology, 2025)",
  "key": {"[1]": {"assay": "Capivasertib exposure metrics at steady state projected with PopPK model, patients with solid tumors", "format": "in vivo", "conditions": "human, plasma, oral; for concentration at 12 h: read-out: Cmin; for AUC: read-out: AUCss(0–12 h)", "description": "Study 1 (NCT01226316) was a phase 1 open-label multipart study. […] The duration of the treatment cycles was 21 days. […] [18]. […] [18, 25, 39].\nStudy 4 (NCT01353781) was a phase 1 dose-escalation study in Japanese patients with advanced solid malignancies.\n(§1) The exposure–response analyses were conducted using a subset of patients from the PopPK analysis where capivasertib was used as monotherapy. […] As different schedules were assessed between and within studies, the exposure metrics were derived for the last dose of the last dosing day in the second week of treatment (i.e. on days 14, 11, and 9 for the continuous, [4/3] and [2/5] schedules, respectively), to ensure SS conditions, using the planned dose. […] The relative dose intensity (RDI) was calculated as the percentage of the average weekly dose relative to the PWD to examine the tolerability of capivasertib monotherapy at the given dosing schedules."}, "[2]": {"assay": "Relative dose intensity (RDI) of capivasertib monotherapy", "format": "in vivo, human", "description": "as §1"}, "AKT": {"test_system": "AKT", "design": "method as in PMID 29066505", "conditions": "480 mg BID [4/3] versus 320 mg continuous dosing; cited from earlier work"}, "[3]": {"conditions": "480 mg, Study 1, [4/3] BID, PWD 3840 mg, N=127, median (range)"}, "[4]": {"conditions": "480 mg, Study 4 (Japanese patients), [4/3] BID, 480 mg, PWD 3840 mg, N=6, median (range)"}, "[5]": {"conditions": "480 mg, Study 4 (Japanese patients), [4/3] BID, PWD 3840 mg, N=6, median (range)"}, "[6]": {"conditions": "600 mg, Study 1, Continuous BID, 600 mg, PWD 8400 mg, N=2, median (range)"}, "[7]": {"conditions": "600 mg, Study 1, Continuous BID, PWD 8400 mg, N=2, median (range)"}, "[8]": {"conditions": "640 mg, Study 1, [2/5] BID, 640 mg, PWD 2560 mg, N=8, median (range)"}, "[9]": {"conditions": "640 mg, Study 1, [2/5] BID, PWD 2560 mg, N=8, median (range)"}, "[10]": {"conditions": "640 mg, Study 1, [4/3] BID, 640 mg, PWD 5120 mg, N=10, median (range)"}, "[11]": {"conditions": "640 mg, Study 1, [4/3] BID, PWD 5120 mg, N=10, median (range)"}, "[12]": {"conditions": "640 mg, Study 4 (Japanese patients), [2/5] BID, 640 mg, PWD 2560 mg, N=6, median (range)"}, "[13]": {"conditions": "640 mg, Study 4 (Japanese patients), [2/5] BID, PWD 2560 mg, N=6, median (range)"}, "[14]": {"conditions": "800 mg, Study 1, [2/5] BID, 800 mg, PWD 3200 mg, N=14, median (range)"}, "[15]": {"conditions": "800 mg, Study 1, [2/5] BID, PWD 3200 mg, N=14, median (range)"}},
  "note": "Like-named read-outs stand apart in the source and are kept apart here.",
  "data": [
    {"smiles": "NC1(C(=O)N[C@@H](CCO)c2ccc(Cl)cc2)CCN(c2ncnc3[nH]ccc23)CC1", "note": "[capivasertib, 4-amino-N-[(1S)-1-(4-chlorophenyl)-3-hydroxypropyl]-1-(7H-pyrrolo[2,3-d]pyrimidin– 4-yl)piperidine-4-carboxamide]", "values": [
      {"measurement": "concentration at 12 h", "setting": "[1]; 480 mg, Study 1, [4/3] BID, 480 mg, PWD 3840 mg, N=127, median (range)", "result": 330, "unit": "ng/mL"},
      {"measurement": "AUC at 1 week", "setting": "[1]; [3]", "result": 77400, "unit": "ng·h/mL"},
      {"measurement": "Cmax", "setting": "[1]; [3]", "result": 1590, "unit": "ng/mL"},
      {"measurement": "AUC", "setting": "[1]; [4]", "result": 10800, "unit": "ng·h/mL"},
      {"measurement": "concentration at 12 h", "setting": "[1]; [4]", "result": 290, "unit": "ng/mL"},
      {"measurement": "AUC at 1 week", "setting": "[1]; [5]", "result": 86800, "unit": "ng·h/mL"},
      {"measurement": "Cmax", "setting": "[1]; [5]", "result": 1880, "unit": "ng/mL"},
      {"measurement": "AUC", "setting": "[1]; [6]", "result": 14300, "unit": "ng·h/mL"},
      {"measurement": "concentration at 12 h", "setting": "[1]; [6]", "result": 460, "unit": "ng/mL"},
      {"measurement": "AUC at 1 week", "setting": "[1]; [7]", "result": 200000, "unit": "ng·h/mL"},
      {"measurement": "Cmax", "setting": "[1]; [7]", "result": 2520, "unit": "ng/mL"},
      {"measurement": "AUC", "setting": "[1]; [8]", "result": 15000, "unit": "ng·h/mL"},
      {"measurement": "concentration at 12 h", "setting": "[1]; [8]", "result": 570, "unit": "ng/mL"},
      {"measurement": "AUC at 1 week", "setting": "[1]; [9]", "result": 59800, "unit": "ng·h/mL"},
      {"measurement": "Cmax", "setting": "[1]; [9]", "result": 2080, "unit": "ng/mL"},
      {"measurement": "AUC", "setting": "[1]; [10]", "result": 15900, "unit": "ng·h/mL"},
      {"measurement": "concentration at 12 h", "setting": "[1]; [10]", "result": 550, "unit": "ng/mL"},
      {"measurement": "AUC at 1 week", "setting": "[1]; [11]", "result": 127000, "unit": "ng·h/mL"},
      {"measurement": "Cmax", "setting": "[1]; [11]", "result": 2430, "unit": "ng/mL"},
      {"measurement": "AUC", "setting": "[1]; [12]", "result": 15200, "unit": "ng·h/mL"},
      {"measurement": "concentration at 12 h", "setting": "[1]; [12]", "result": 570, "unit": "ng/mL"},
      {"measurement": "AUC at 1 week", "setting": "[1]; [13]", "result": 61000, "unit": "ng·h/mL"},
      {"measurement": "Cmax", "setting": "[1]; [13]", "result": 2480, "unit": "ng/mL"},
      {"measurement": "AUC", "setting": "[1]; [14]", "result": 26400, "unit": "ng·h/mL"},
      {"measurement": "concentration at 12 h", "setting": "[1]; [14]", "result": 1080, "unit": "ng/mL"},
      {"measurement": "AUC at 1 week", "setting": "[1]; [15]", "result": 106000, "unit": "ng·h/mL"},
      {"measurement": "Cmax", "setting": "[1]; [15]", "result": 3930, "unit": "ng/mL"},
      {"measurement": "RDI", "setting": "[2]; OAK, [4/3] BID, 480 mg, PWD 3840 mg, N=30, median (range)", "result": "100 (45.6–115.4) %"},
      {"measurement": "RDI", "setting": "[2]; Study 1, Continuous BID, 80 mg, PWD 1120 mg, N=5, median (range)", "result": "100.0 (95.9–100.6) %"},
      {"measurement": "RDI", "setting": "[2]; Study 1, Continuous BID, 160 mg, PWD 2240 mg, N=5, median (range)", "result": "97.6 (83.5–102.3) %"},
      {"measurement": "RDI", "setting": "[2]; Study 1, Continuous BID, 240 mg, PWD 3360 mg, N=6, median (range)", "result": "100.3 (98.8–100.9) %"},
      {"measurement": "RDI", "setting": "[2]; Study 1, Continuous BID, 320 mg, PWD 4480 mg, N=12, median (range)", "result": "98.1 (37.2–102.4) %"},
      {"measurement": "RDI", "setting": "[2]; Study 1, Continuous BID, 400 mg, PWD 5600 mg, N=11, median (range)", "result": "80.3 (55.4–102.1) %"},
      {"measurement": "RDI", "setting": "[2]; Study 1, Continuous BID, 480 mg, PWD 6720 mg, N=6, median (range)", "result": "50.2 (45.3–83.3) %"},
      {"measurement": "RDI", "setting": "[2]; Study 1, Continuous BID, 600 mg, PWD 8400 mg, N=2, median (range)", "result": "103.1 (100–106.2) %"},
      {"measurement": "RDI", "setting": "[2]; Study 1, [2/5] BID, 640 mg, PWD 2560 mg, N=8, median (range)", "result": "94.0 (80.9–109.1) %"},
      {"measurement": "RDI", "setting": "[2]; Study 1, [2/5] BID, 800 mg, PWD 3200 mg, N=14, median (range)", "result": "101.1 (42.5–133.3) %"},
      {"measurement": "RDI", "setting": "[2]; Study 1, [4/3] BID, 480 mg, PWD 3840 mg, N=127, median (range)", "result": "97.9 (26.4–138.9) %"},
      {"measurement": "RDI", "setting": "[2]; Study 1, [4/3] BID, 640 mg, PWD 5120 mg, N=10, median (range)", "result": "100.0 (70.5–122.2) %"},
      {"measurement": "RDI", "setting": "[2]; Study 4 (Japanese patients), Continuous BID, 80 mg, PWD 1120 mg, N=3, median (range)", "result": "100.0 (88.7–102.3) %"},
      {"measurement": "RDI", "setting": "[2]; Study 4 (Japanese patients), Continuous BID, 240 mg, PWD 3360 mg, N=7, median (range)", "result": "100.0 (41.9–106.7) %"},
      {"measurement": "RDI", "setting": "[2]; Study 4 (Japanese patients), Continuous BID, 320 mg, PWD 4480 mg, N=6, median (range)", "result": "91.5 (59.3–101.1) %"},
      {"measurement": "RDI", "setting": "[2]; Study 4 (Japanese patients), Continuous BID, 400 mg, PWD 5600 mg, N=5, median (range)", "result": "72.1 (51.4–85.7) %"},
      {"measurement": "RDI", "setting": "[2]; Study 4 (Japanese patients), [2/5] BID, 640 mg, PWD 2560 mg, N=6, median (range)", "result": "111.2 (100–119) %"},
      {"measurement": "RDI", "setting": "[2]; Study 4 (Japanese patients), [4/3] BID, 360 mg, PWD 2880 mg, N=8, median (range)", "result": "107.9 (91.4–112) %"},
      {"measurement": "RDI", "setting": "[2]; Study 4 (Japanese patients), [4/3] BID, 480 mg, PWD 3840 mg, N=6, median (range)", "result": "107.9 (79.1–108.6) %"},
      {"measurement": "RDI", "setting": "[2]; [4/3] and [2/5] schedules at all dose levels", "result": "> 90", "unit": "%"},
      {"measurement": "RDI", "setting": "[2]; continuous schedule, 400 and 480 mg doses", "result": "≤ 80", "unit": "%"},
      {"measurement": "target engagement in tumor tissue", "setting": "AKT", "result": "greater target engagement"}
    ]}
  ]
}
